# Data taken from patent US9650360B2, “Anti-mycobacterial drugs against tuberculosis” (priority 2012, dated 2017).
# Test system: HIV
# Assay: in vitro anti-HIV activity in cell culture
# Type: cell-based
smiles,measurement,value
O=C(/C=C(\O)c1cc(Cc2c(F)cc(F)cc2F)cn(Cc2ccccc2F)c1=O)C(=O)N1CCN(c2cccc3ccccc23)CC1,EC90 (concentration for 90% inhibition of virus replication),nM range
